The target of the experiment is Human recombinant carboxy-terminal his-tagged LDHA (amino acids 2-332) (Homo sapiens, UniProt P00338). Briefly: LDHA enzyme inhibition assay (NADH fluorescence). Particulars: LDHA IC50 (μM), 1 nM LDHA, NADH and pyruvate, stereochemistry of tested sample given.
Experimental: Test compounds were diluted in 100% DMSO with 1:3 serial dilutions. […] For the enzyme reaction, serially diluted compounds were added to a mixture of enzyme and NADH. […] Following the baseline read, pyruvate was added to the assay plates and the plates were read with excitation 340 nm and emission 480 nm for 10 minutes every 2.5 seconds. A suitable linear timeframe was selected (150-400 s) to calculate the slope of each concentration tested. The raw data were fitted to 4-parameter dose-response curves using the following equation:
fit=(A+((B−A)/(1+((C/x)̂D))))
inv=(C/((((B−A)/(y−A))−)̂(1/D)))
res=(y−fit) • where A=minimum y, B=maximum y, C=50% y max, and D=slope factor.
The curve bottom was set to the background rate (initial 5 second recording prior to addition of pyruvate) and curve top was set to no inhibitor (DMSO only) control wells rate.
The compounds of the present invention were tested for their capacity to inhibit LDHA activity and activation as described in the enzyme inhibition assay described above.
As to `O=C1CC(c2ccsc2)(c2cccc(Oc3cccnc3)n2)NC(=O)C1Sc1ccccc1Cl` (centres unmarked) [Example 71, 3-((2-chlorophenyl)thio)-6-(6-(pyridin-3-yloxy)pyridin-2-yl)-6-(thiophen-3-yl)piperidine-2,4-dione], the 50% inhibitory concentration (IC50) amounted to 0.056 µM.

Turning to `O=C1CC(c2ccc(N3CCC(F)(F)CC3)cc2)(c2ccsc2)NC(=O)C1Sc1ccccc1Cl` (centres unmarked) [Example 72, 3-(2-chlorophenyl)sulfanyl-6-[4-(4,4-difluoro-1-piperidyl)phenyl]-6-(3-thienyl)piperidine-2,4-dione], the IC50 turned out to be 0.025 µM.

`CC(C)Oc1nc(C2(c3ccsc3)CC(=O)C(Sc3ccccc3Cl)C(=O)N2)ccc1N1CCOCC1` (centres unmarked) [Example 73, 3-((2-chlorophenyl)thio)-6-(6-isopropoxy-5-morpholinopyridin-2-yl)-6-(thiophen-3-yl) piperidine-2,4-dione]: the IC50 came to 0.111 µM. In the case of `CCOc1cccc(C2(c3ccsc3)CC(=O)C(Sc3ccccc3Cl)C(=O)N2)n1` (centres unmarked) [Example 74, 3-(2-chlorophenyl)sulfanyl-6-(6-ethoxy-2-pyridyl)-6-(3-thienyl)piperidine-2,4-dione] it was 0.014 µM; in that of `CC(C)COc1cccc(C2(c3ccsc3)CC(=O)C(Sc3ccccc3Cl)C(=O)N2)n1` (centres unmarked) [Example 75, 3-(2-chlorophenyl)sulfanyl-6-(6-isobutoxy-2-pyridyl)-6-(3-thienyl)piperidine-2,4-dione], 0.07 µM. For the compound `O=C1CC(c2ccsc2)(c2cccc(Oc3ccc(OC(F)(F)F)cc3)n2)NC(=O)C1Sc1ccccc1Cl` (centres unmarked) [Example 76, 3-(2-chlorophenyl)sulfanyl-6-(3-thienyl)-6-[6-[4-(trifluoromethoxy)phenoxy]-2-pyridyl] piperidine-2,4-dione], the IC50 came to 0.015 µM. As for `O=C1CC(c2ccsc2)(c2cccc(Oc3cccc(F)c3)n2)NC(=O)C1Sc1ccccc1Cl` (centres unmarked) [Example 80, 3-(2-chlorophenyl)sulfanyl-6-[6-(3-fluorophenoxy)-2-pyridyl]-6-(3-thienyl) piperidine-2,4-dione], the concentration for half-maximal inhibition (IC50) is 0.056 µM. In the case of `O=C1CC(c2ccsc2)(c2cccc(OCCC3CC3)n2)NC(=O)C1Sc1ccccc1Cl` (centres unmarked) [Example 81, 3-((2-chlorophenyl)thio)-6-(6-(2-cyclopropyl-ethoxy)pyridin-2-yl)-6-(thiophen-3-yl)piperidine-2,4-dione] it was 0.229 µM; in that of `CN(C)c1cccc(C2(c3ccsc3)CC(=O)C(Sc3ccccc3Cl)C(=O)N2)n1` (centres unmarked) [Example 85, 3-((2-chlorophenyl)thio)-6-(6-(dimethylamino)pyridin-2-yl)-6-(thiophen-3-yl)piperidine-2,4-dione], 0.018 µM; in that of `O=C1CC(c2ccsc2)(c2cccc(Oc3cccc4cccnc34)n2)NC(=O)C1Sc1ccccc1Cl` (centres unmarked) [Example 88, 33-(2-chlorophenyl) sulfanyl-6-[6-(8-quinolyloxy)-2-pyridyl]-6-(3-thienyl)piperidine-2,4-dione], 0.017 µM. For the compound `O=C1CC(c2ccsc2)(c2cccc(Oc3cccc4ccncc34)n2)NC(=O)C1Sc1ccccc1Cl` (centres unmarked) [Example 89, 3-(2-chlorophenyl)sulfanyl-6-[6-(8-iso-quinolyloxy)-2-pyridyl]-6-(3-thienyl)piperidine-2,4-dione], the half-maximal inhibitory concentration (IC50) turned out to be 0.018 µM.

As to `O=C1CC(c2ccsc2)(c2cccc(Oc3cccc4cnccc34)n2)NC(=O)C1Sc1ccccc1Cl` (centres unmarked) [Example 90, 3-((2-chlorophenyl)thio)-6-(6-(isoquinolin-5-yloxy)pyridin-2-yl)-6-(thiophen-3-yl)piperidine-2,4-dione], the IC50 turned out to be 0.013 µM. In the case of `O=C1C[C@](c2ccsc2)(c2cccc(OCCC3CC3)n2)NC(=O)C1Sc1ccccc1Cl` (stereo partly drawn) [Example 92, (6S)-3-((2-chlorophenyl)thio)-6-(6-(2-cyclopropyl-ethoxy)pyridin-2-yl)-6-(thiophen-3-yl)piperidine-2,4-dione] it was 0.007 µM. Take `COCc1ccccc1Oc1cccc(C2(c3ccsc3)CC(=O)C(Sc3ccccc3Cl)C(=O)N2)n1` (centres unmarked) [Example 94]: the IC50 worked out at 0.023 µM.

On to `O=C1C[C@@](c2ccsc2)(c2cccc(OCCC3CC3)n2)NC(=O)C1Sc1ccccc1Cl` (stereo partly drawn) [Example 95, (6R)-3-((2-chlorophenyl)thio)-6-(6-(2-cyclo-propylethoxy)pyridin-2-yl)-6-(thiophen-3-yl) piperidine-2,4-dione], for which the half-inhibitory concentration (IC50) was determined as 0.29 µM.

For `O=C1CC(c2ccsc2)(c2cccc(Oc3ccccn3)n2)NC(=O)C1Sc1ccccc1Cl` (centres unmarked) [Example 96, 3-(2-chlorophenyl)sulfanyl-6-[6-(2-pyridyloxy)-2-pyridyl]-6-(3-thienyl) piperidine-2,4-dione], the 50% inhibitory concentration (IC50) stood at 0.019 µM. For the compound `O=C1CC(c2ccsc2)(c2cccc(Oc3ccc(F)c4cccnc34)n2)NC(=O)C1Sc1ccccc1Cl` (centres unmarked) [Example 98, 3-(2-chlorophenyl)sulfanyl-6-[6-[(5-fluoro-8-quinolyl)oxy]-2-pyridyl]-6-(3-thienyl)piperidine-2,4-dione], the IC50 was found to be 0.167 µM. `O=C1CC(c2ccsc2)(c2cccc(Oc3cccc4cccnc34)n2)NC(=O)C1Sc1ccccc1Cl` (centres unmarked) [Example 100, 3-((2-chlorophenyl)thio)-6-(6-(quinolin-8-yloxy)pyridin-2-yl)-6-(thiophen-3-yl)piperidine-2,4-dione]: the IC50 turned out to be 0.046 µM. In the case of `COCc1ccccc1Oc1cccc(C2(c3ccsc3)CC(=O)C(Sc3ccccc3Cl)C(=O)N2)n1` (centres unmarked) [Example 101] it was 0.018 µM.

`O=C1CC(c2ccsc2)(c2cccc(Oc3cccc4c3NCCC4)n2)NC(=O)C1Sc1ccccc1Cl` (centres unmarked) [Example 102, 3-(2-chlorophenyl)sulfanyl-6-[6-(1,2,3,4-tetrahydro-quinolin-8-yloxy)-2-pyridyl]-6-(3-thienyl) piperidine-2,4-dione]: the IC50 was determined as 0.018 µM. As to `O=C1CC(c2ccsc2)(c2cccc(Oc3cccc4[nH]ncc34)n2)NC(=O)C1Sc1ccccc1Cl` (centres unmarked) [Example 103, 3-(2-chlorophenyl)sulfanyl-6-[6-(1H-indazol-4-yloxy)-2-pyridyl]-6-(3-thienyl) piperidine-2,4-dione], the concentration for half-maximal inhibition (IC50) stood at 0.141 µM. In the case of `O=C1CC(c2ccsc2)(c2cccc(N3CCCc4cccc(O)c43)n2)NC(=O)C1Sc1ccccc1Cl` (centres unmarked) [Example 105, 3-(2-chlorophenyl)sulfanyl-6-[6-(8-hydroxy-3,4-dihydro-2H-quinolin-1-yl)-2-pyridyl]-9-(3-thienyl)piperidine-2,4-dione] it was 0.125 µM; in that of `O=C1CC(c2ccc(N3CCC(F)CC3)cc2)(c2ccsc2)NC(=O)C1Sc1ccccc1Cl` (centres unmarked) [Example 107, 3-(2-chlorophenyl)sulfanyl-6-[4-(4-fluoro-1-piperidyl)phenyl]-6-(3-thienyl)piperidine-2,4-dione], 0.131 µM. In the case of `O=C1CC(c2ccsc2)(c2cccc(Oc3cccc4c3NCCC4)n2)NC(=O)C1Sc1ccccc1Cl` (centres unmarked) [Example 109, 3-((2-chlorophenyl)thio)-6-(6-((1,2,3,4-tetrahydro-quinolin-8-yl)oxy)pyridin-2-yl)-6-(thiophen-3-yl)piperidine-2,4-dione] it was 0.01 µM.

For `O=C1CC(c2ccsc2)(c2cccc(Oc3cccc4c3NCCC4)n2)NC(=O)C1Sc1ccccc1Cl` (centres unmarked) [Example 111, 3-((2-chlorophenyl)thio)-6-(6-((1,2,3,4-tetrahydro-quinolin-8-yl)oxy)pyridin-2-yl)-6-(thiophen-3-yl)piperidine-2,4-dione], the 50% inhibitory concentration (IC50) was determined as 0.012 µM.

As for `O=C1CC(c2ccsc2)(c2cccc(Oc3ccc(F)c(C(F)(F)F)c3)n2)NC(=O)C1Sc1ccccc1Cl` (centres unmarked) [Example 123], the 50% inhibitory concentration (IC50) was 0.006 µM.
